Patent US10442763B2, “EBNA1 inhibitors and methods using same” (priority 2015, dated 2019)

target: T1, His-EBNA1 (DNA binding domain of EBNA1, amino acids 459-607) (Epstein-Barr virus, UniProt P03211); experiment: Inhibition of 5'-biotin-oPL4624 binding to His-EBNA1 using Alpha Screen technology
T1 construct: made in house; host or cells: E. coli
Experimental: Inhibition of 5′-Biotin-oPL4624 Binding to his-EBNA1 Using Alpha Screen Technology
Assays were performed using the DNA binding domain of EBNA1 (amino acids 459-607), which was His-tagged (His-EBNA1) and the self-complementary biotinylated (bt) oligonucleotide with the sequence 5′-bt-[…]-ATGCTACCC-3′ (bt-oPL4624; or 5′-bt-SEQ ID NO: 1). The protein was expressed in E. coli and purified according to Barwell, et al., 1995, J Biol Chem. 270:20556-9.). The bt-oPL4624 oligonucleotide was purchased from Integrated DNA Technologies, Inc (IDT). AlphaScreen donor, acceptor beads and white, opaque 384-well assay plates were purchased from PerkinElmer, Inc.
Assays contained 15 nM His-EBNA1, 0.2 nM bt-oPL4624, 5 μg/mL AlphaScreen streptavidin donor beads and nickel chelate acceptor beads, and a series of concentrations of test compound ranging from 3.2 nM to 100 μM in a total volume of 40 μL assay buffer (25 mM Tris, pH 7.2, 160 mM NaCl, 1 mM MgCl2). His-EBNA1 (30 nM) and bt-oPL4624 (0.4 nM) were preincubated with 10 μg/mL nickel chelate AlphaScreen acceptor bead, or 10 μg/mL streptavidin AlphaScreen donor bead, respectively, for 30 minutes at room temperature in assay buffer. Twenty microliters of His-EBNA1/acceptor bead mix and bt-oPL4624/donor bead mix were transferred to assay plates containing 0.4 μL of 1:3 serial dilutions of test compounds previously prepared in DMSO at concentrations ranging from 0.32 μM to 10 mM. Non-specific binding was determined with 5 μg/mL AlphaScreen acceptor bead in the absence of His-EBNA1. After 2 hr incubation at room temperature, the AlphaScreen signal was measured on the Envision plate reader (PerkinElmer, Inc.) at 680 nm excitation and 570 nm emission. Inhibition values at each concentration of test compound were determined by setting 100% equal to raw data values in the absence of EBNA1 and 0% equal to the raw data values in the presence of EBNA1. Nonlinear regression fits of the inhibition values to a one-site dose-response equation were performed using GraphPad Prism.

T1 sequence (P03211 459-607): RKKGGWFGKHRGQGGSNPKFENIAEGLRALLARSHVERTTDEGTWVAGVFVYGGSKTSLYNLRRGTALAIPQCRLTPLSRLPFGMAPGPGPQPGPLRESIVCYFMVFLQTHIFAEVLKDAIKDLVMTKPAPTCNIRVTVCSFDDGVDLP

Compound	IC50
CC(C)S(=O)(=O)N1Cc2ccc(C#Cc3cccc(C(=O)O)c3-c3ccc4cc[nH]c4c3)cc2C1 [Entry 57]	1 to 10 µM
CS(=O)(=O)N1CCC(N2CCc3ccc(C#Cc4cccc(C(=O)O)c4-c4ccc5cc[nH]c5c4)cc3C2)C1 (stereo not drawn) [Entry 58]	10 to 100 µM
CS(=O)(=O)N1CCC(CN2CCc3cc(C#Cc4cccc(C(=O)O)c4-c4ccc5cc[nH]c5c4)ccc3C2)CC1 [Entry 59]	10 to 100 µM
CS(=O)(=O)N1CC(N2CCc3cc(C#Cc4cccc(C(=O)O)c4-c4ccc5cc[nH]c5c4)ccc3C2)C1 [Entry 60]	10 to 100 µM
CS(=O)(=O)N1CCC(CN2CCc3cc(C#Cc4cccc(C(=O)O)c4-c4ccc5cc[nH]c5c4)ccc3C2)C1 (stereo not drawn) [Entry 61]	10 to 100 µM
CS(=O)(=O)N1CCC(CN2CCc3ccc(C#Cc4cccc(C(=O)O)c4-c4ccc5cc[nH]c5c4)cc3C2)C1 (stereo not drawn) [Entry 62]	10 to 100 µM
CC(=O)N1CCC(CN2CCc3ccc(C#Cc4cccc(C(=O)O)c4-c4ccc5cc[nH]c5c4)cc3C2)C1 (stereo not drawn) [Entry 63]	10 to 100 µM
CS(=O)(=O)N1CC(CN2CCc3cc(C#Cc4cccc(C(=O)O)c4-c4ccc5cc[nH]c5c4)ccc3C2)C1 [Entry 64]	10 to 100 µM
CS(=O)(=O)N1CC(CN2CCc3ccc(C#Cc4cccc(C(=O)O)c4-c4ccc5cc[nH]c5c4)cc3C2)C1 [Entry 65]	10 to 100 µM
CS(=O)(=O)Nc1cccc(CN2CCc3cc(C#Cc4cccc(C(=O)O)c4-c4ccc5cc[nH]c5c4)ccc3C2)c1 [Entry 66]	1 to 10 µM
CS(=O)(=O)Nc1cccc(CN2CCc3ccc(C#Cc4cccc(C(=O)O)c4-c4ccc5cc[nH]c5c4)cc3C2)c1 [Entry 67]	1 to 10 µM
CS(=O)(=O)N1CCC(N2Cc3ccc(C#Cc4cccc(C(=O)O)c4-c4ccc5cc[nH]c5c4)cc3C2)C1 (stereo not drawn) [Entry 68]	1 to 10 µM
CS(=O)(=O)N1CC(N2Cc3ccc(C#Cc4cccc(C(=O)O)c4-c4ccc5cc[nH]c5c4)cc3C2)C1 [Entry 69]	1 to 10 µM
CS(=O)(=O)N1CCC(CN2Cc3ccc(C#Cc4cccc(C(=O)O)c4-c4ccc5cc[nH]c5c4)cc3C2)C1 (stereo not drawn) [Entry 70]	1 to 10 µM
CS(=O)(=O)N1CC(CN2Cc3ccc(C#Cc4cccc(C(=O)O)c4-c4ccc5cc[nH]c5c4)cc3C2)C1 [Entry 71]	10 to 100 µM
CS(=O)(=O)N1CCC(CN2Cc3ccc(C#Cc4cccc(C(=O)O)c4-c4ccc5cc[nH]c5c4)cc3C2)CC1 [Entry 72]	10 to 100 µM
CS(=O)(=O)N1CCc2ccc(C#Cc3cccc(C(=O)O)c3-c3ccc4cc[nH]c4c3)cc2C1 [Entry 73]	1 to 10 µM
CC(C)S(=O)(=O)N1CCc2ccc(C#Cc3cccc(C(=O)O)c3-c3ccc4cc[nH]c4c3)cc2C1 [Entry 74]	1 to 10 µM
CCC(=O)N1CCc2ccc(C#Cc3cccc(C(=O)O)c3-c3ccc4cc[nH]c4c3)cc2C1 [Entry 75]	10 to 100 µM
CS(=O)(=O)N1CCc2cc(C#Cc3cccc(C(=O)O)c3-c3ccc4cc[nH]c4c3)ccc2C1 [Entry 76]	1 to 10 µM
CC(C)S(=O)(=O)N1CCc2cc(C#Cc3cccc(C(=O)O)c3-c3ccc4cc[nH]c4c3)ccc2C1 [Entry 77]	1 to 10 µM
CC(=O)N1CCc2cc(C#Cc3cccc(C(=O)O)c3-c3ccc4cc[nH]c4c3)ccc2C1 [Entry 78]	1 to 10 µM
CCC(=O)N1CCc2cc(C#Cc3cccc(C(=O)O)c3-c3ccc4cc[nH]c4c3)ccc2C1 [Entry 79]	1 to 10 µM
N#Cc1cccc(OCc2ccc(C#Cc3cccc(C(=O)O)c3-c3ccc4cc[nH]c4c3)cc2)c1 [Entry 81]	1 to 10 µM
NC(=O)c1cccc(OCc2ccc(C#Cc3cccc(C(=O)O)c3-c3ccc4cc[nH]c4c3)cc2)c1 [Entry 82]	1 to 10 µM
O=C(O)c1cccc(C#Cc2ccc(COc3ccc(C(F)(F)F)cc3)cc2)c1-c1ccc2cc[nH]c2c1 [Entry 83]	1 to 10 µM
O=C(O)c1cccc(C#Cc2ccc(COc3cccc(C(F)(F)F)c3)cc2)c1-c1ccc2cc[nH]c2c1 [Entry 84]	1 to 10 µM

Compound	IC50
COc1ccc(OCc2ccc(C#Cc3cccc(C(=O)O)c3-c3ccc4cc[nH]c4c3)cc2)cc1 [Entry 85]	1 to 10 µM
NC(=O)c1ccc(OCc2ccc(C#Cc3cccc(C(=O)O)c3-c3ccc4cc[nH]c4c3)cc2)cc1 [Entry 86]	1 to 10 µM
COc1cccc(OCc2ccc(C#Cc3cccc(C(=O)O)c3-c3ccc4cc[nH]c4c3)cc2)c1 [Entry 87]	1 to 10 µM
O=C(O)c1cccc(C#Cc2ccc(COc3ccccc3)cc2)c1-c1ccc2cc[nH]c2c1 [Entry 88]	1 to 10 µM
O=C(O)c1cccc(C#Cc2ccc(COc3ccccc3F)cc2)c1-c1ccc2cc[nH]c2c1 [Entry 89]	1 to 10 µM
O=C(O)c1cccc(C#Cc2ccc(COc3cccnc3)cc2)c1-c1ccc2cc[nH]c2c1 [Entry 90]	1 to 10 µM
O=C(O)c1cccc(C#Cc2ccc(COc3cccc(Cl)c3)cc2)c1-c1ccc2cc[nH]c2c1 [Entry 91]	1 to 10 µM
O=C(O)c1cccc(C#Cc2ccc(COc3ccc(Cl)c(Cl)c3)cc2)c1-c1ccc2cc[nH]c2c1 [Entry 92]	1 to 10 µM
O=C(O)c1cccc(C#Cc2ccc(COc3ccccc3C(F)(F)F)cc2)c1-c1ccc2cc[nH]c2c1 [Entry 93]	1 to 10 µM
N#Cc1ccccc1OCc1ccc(C#Cc2cccc(C(=O)O)c2-c2ccc3cc[nH]c3c2)cc1 [Entry 94]	1 to 10 µM
CS(=O)(=O)c1ccc(OCc2ccc(C#Cc3cccc(C(=O)O)c3-c3ccc4cc[nH]c4c3)cc2)cc1 [Entry 95]	1 to 10 µM
O=C(O)c1cccc(C#Cc2ccc(COc3cncnc3)cc2)c1-c1ccc2cc[nH]c2c1 [Entry 96]	1 to 10 µM
CS(=O)(=O)c1ccccc1OCc1ccc(C#Cc2cccc(C(=O)O)c2-c2ccc3cc[nH]c3c2)cc1 [Entry 97]	1 to 10 µM
CS(=O)(=O)c1cccc(OCc2ccc(C#Cc3cccc(C(=O)O)c3-c3ccc4cc[nH]c4c3)cc2)c1 [Entry 98]	1 to 10 µM
CS(=O)(=O)Nc1cccc(-c2cccc(C#Cc3cccc(C(=O)O)c3-c3ccc4cc[nH]c4c3)c2)c1 [Entry 99]	1 to 10 µM
O=C(O)c1cccc(C#Cc2ccc(OC3CCOCC3)nc2)c1-c1ccc2cc[nH]c2c1 [Entry 100]	1 to 10 µM
CCCNC(=O)c1cc2ccc(C#Cc3cccc(C(=O)O)c3-c3ccc4cc[nH]c4c3)cc2[nH]1 [Entry 101]	1 to 10 µM
O=C(O)c1cccc(C#Cc2cccc(CN3CCc4ccccc4C3)c2)c1-c1ccc2cc[nH]c2c1 [Entry 102]	1 to 10 µM
N#Cc1cc(C#Cc2cccc(C(=O)O)c2-c2ccc3cc[nH]c3c2)ccc1OC1CCOCC1 [Entry 103]	1 to 10 µM
CCOC(=O)N1CCN(Cc2cccc(C#Cc3cccc(C(=O)O)c3-c3ccc4cc[nH]c4c3)c2)CC1 [Entry 104]	10 to 100 µM
O=C(O)c1cccc(C#Cc2ccc(C3(CO)COC3)cc2)c1-c1ccc2cc[nH]c2c1 [Entry 105]	1 to 10 µM
Nc1cc(-c2cccc(C#Cc3cccc(C(=O)O)c3-c3ccc4cc[nH]c4c3)c2)n[nH]1 [Entry 106]	1 to 10 µM
O=C(O)c1cccc(C#Cc2cccc(-c3cnco3)c2)c1-c1ccc2cc[nH]c2c1 [Entry 107]	1 to 10 µM
O=C(O)c1cccc(C#Cc2ccc(C(=O)C3CCOCC3)cc2)c1-c1ccc2cc[nH]c2c1 [Entry 108]	1 to 10 µM
O=C(O)c1cccc(C#Cc2ccccc2)c1-c1ccc2cc[nH]c2c1F [Entry 109]	10 to 100 µM
O=C(O)c1cccc(C#Cc2ccccc2)c1-c1ccc2ncsc2c1 [Entry 110]	10 to 100 µM
O=C(O)c1cccc(C#Cc2ccccc2)c1-c1ccc2scnc2c1 [Entry 111]	10 to 100 µM
